Measured values as given in paper PMC5697638, “Identification of a Potent Phosphoinositide 3‐Kinase Pan Inhibitor Displaying a Strategic Carboxylic Acid Group and Development of Its Prodrugs” (Chemmedchem, 2017).

Assays:
Format in all cases: biochemical
[1] = target: T1, hPI3Kγ (PIK3CG) (Homo sapiens, UniProt P48736); assay: lipid kinase assay (ADP-Glo), PI3Kγ
T1 construct: purchased ProQinase, Germany 1163‐0000‐1

[2] = target: T2, hPI3K‐c2γ (PIK3C2G) (Homo sapiens, UniProt O75747); assay: lipid kinase assay (ADP-Glo), PI3K-C2γ; settings: Table 2; mean of at least three determinations, 95 % confidence intervals; read-out: IC50 PI3Kc2γ
T2 construct: purchased ProQinase, Germany 1207‐0000‐1
T2 sequence (O75747 1-1486): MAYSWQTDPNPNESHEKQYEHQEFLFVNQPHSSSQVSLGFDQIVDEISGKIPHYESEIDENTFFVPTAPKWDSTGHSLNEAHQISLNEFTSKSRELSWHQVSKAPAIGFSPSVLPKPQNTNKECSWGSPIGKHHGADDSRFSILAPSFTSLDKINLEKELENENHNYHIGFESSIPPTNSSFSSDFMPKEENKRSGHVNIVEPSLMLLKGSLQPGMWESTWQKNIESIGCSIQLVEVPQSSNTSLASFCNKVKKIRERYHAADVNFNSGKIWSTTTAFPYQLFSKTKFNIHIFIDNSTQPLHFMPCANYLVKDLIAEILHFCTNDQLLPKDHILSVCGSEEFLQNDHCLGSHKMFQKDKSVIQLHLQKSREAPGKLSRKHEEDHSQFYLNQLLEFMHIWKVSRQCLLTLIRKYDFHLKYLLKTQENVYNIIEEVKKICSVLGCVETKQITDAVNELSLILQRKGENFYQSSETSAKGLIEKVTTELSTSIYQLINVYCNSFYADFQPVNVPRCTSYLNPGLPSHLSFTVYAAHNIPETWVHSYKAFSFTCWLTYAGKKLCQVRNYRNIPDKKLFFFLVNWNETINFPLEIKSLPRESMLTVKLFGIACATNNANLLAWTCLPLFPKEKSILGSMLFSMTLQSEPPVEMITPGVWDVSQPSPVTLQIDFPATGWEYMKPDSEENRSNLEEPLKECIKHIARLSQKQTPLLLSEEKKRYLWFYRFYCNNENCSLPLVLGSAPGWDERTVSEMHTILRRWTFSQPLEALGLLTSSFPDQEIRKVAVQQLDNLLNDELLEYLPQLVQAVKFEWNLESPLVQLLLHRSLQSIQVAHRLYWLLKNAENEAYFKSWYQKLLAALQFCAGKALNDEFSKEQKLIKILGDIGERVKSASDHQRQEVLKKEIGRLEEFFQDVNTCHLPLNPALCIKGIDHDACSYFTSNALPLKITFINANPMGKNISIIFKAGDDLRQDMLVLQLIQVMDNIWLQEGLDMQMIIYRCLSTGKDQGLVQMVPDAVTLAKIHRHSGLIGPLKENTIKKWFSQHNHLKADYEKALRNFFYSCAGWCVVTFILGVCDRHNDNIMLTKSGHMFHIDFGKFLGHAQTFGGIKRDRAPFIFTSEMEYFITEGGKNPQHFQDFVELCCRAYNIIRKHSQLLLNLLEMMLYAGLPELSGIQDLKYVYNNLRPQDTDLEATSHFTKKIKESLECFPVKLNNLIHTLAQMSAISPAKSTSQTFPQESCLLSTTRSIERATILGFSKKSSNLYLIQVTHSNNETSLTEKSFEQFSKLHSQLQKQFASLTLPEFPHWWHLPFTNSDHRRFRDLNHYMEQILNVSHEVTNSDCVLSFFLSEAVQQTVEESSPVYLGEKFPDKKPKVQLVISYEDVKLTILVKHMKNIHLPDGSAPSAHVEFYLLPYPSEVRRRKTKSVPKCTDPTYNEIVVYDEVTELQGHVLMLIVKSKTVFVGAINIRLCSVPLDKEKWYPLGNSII
Protocol: (§1) In vitro selection, lipid kinase assay: To determine the inhibitory activity of the new molecular entities on PI3K enzyme, a lipid kinase assay was performed: recombinant proteins (30 ng), human PI3Kα (PIK3CA/PIK3R1, #1161‐1165‐1 ProQinase–Germany), hPI3Kβ (PIK3CB wt/PIK3R1, #1168‐1165‐1 ProQinase, Germany), hPI3Kγ (PIK3CG, #1163‐0000‐1 ProQinase, Germany), hPI3Kδ (PIK3CD/PIK3R1, #1162–1165‐1 ProQinase, Germany), hPI3K‐C2α (PIK3C2A, #14‐906 Merck Millipore_Merck KGaA, Germany), hPI3K‐C2β (PIK3C2B, #14‐907 Merck Millipore_Merck KGaA, Germany), hPI3K‐c2γ (PIK3C2G, #1207‐0000‐1 ProQinase, Germany), and hVps34 (PIK3C3, #1160‐0000‐1 ProQinase, Germany), were incubated in kinase buffer {12.5 μL; 20 mM Tris‐HCl pH 7.5, 10 mM MgCl2, 10 μM ATP, 0.05 mg mL^−1 BSA, 0.5 mM EDTA, 5 mM HEPES pH 7.5, for PI3Kα,PI3Kβ, PI3Kγ, PI3Kδ, PI3KC‐2α, and PI3KC‐2γ; 15 mM MnCl2, 5 mM EGTA, 100 μM ATP, 50 mM HEPES pH 7.5, 100 mM NaCl, and 0.03 % CHAPS for PI3K‐C2β and VPS34 {BSA=bovine serum albumin; EDTA=ethylenediaminetetraacetic acid; HEPES=4‐(2‐hydroxyethyl)‐1‐piperazineethanesulfonic acid; EGTA=ethylene glycol‐bis(2‐aminoethylether)‐N,N,N′,N′‐tetraacetic acid; CHAPS=3‐[(3‐cholamidopropyl)dimethylammonio]‐1‐propanesulfonate}. In the reaction, the ATP concentration used for different PI3Ks was defined on the basis of the Michaelis–Menten kinetics of each enzyme, provided by the supplier. […]

[3] = target: T3, hVps34 (PIK3C3) (Homo sapiens, UniProt Q8NEB9); assay: lipid kinase assay (ADP-Glo), PI3K-C3; settings: Table 2; mean of at least three determinations, 95 % confidence intervals; read-out: IC50 PI3Kc3
T3 construct: purchased ProQinase, Germany 1160‐0000‐1
Protocol: as §1

T1 sequence (P48736 whole entry): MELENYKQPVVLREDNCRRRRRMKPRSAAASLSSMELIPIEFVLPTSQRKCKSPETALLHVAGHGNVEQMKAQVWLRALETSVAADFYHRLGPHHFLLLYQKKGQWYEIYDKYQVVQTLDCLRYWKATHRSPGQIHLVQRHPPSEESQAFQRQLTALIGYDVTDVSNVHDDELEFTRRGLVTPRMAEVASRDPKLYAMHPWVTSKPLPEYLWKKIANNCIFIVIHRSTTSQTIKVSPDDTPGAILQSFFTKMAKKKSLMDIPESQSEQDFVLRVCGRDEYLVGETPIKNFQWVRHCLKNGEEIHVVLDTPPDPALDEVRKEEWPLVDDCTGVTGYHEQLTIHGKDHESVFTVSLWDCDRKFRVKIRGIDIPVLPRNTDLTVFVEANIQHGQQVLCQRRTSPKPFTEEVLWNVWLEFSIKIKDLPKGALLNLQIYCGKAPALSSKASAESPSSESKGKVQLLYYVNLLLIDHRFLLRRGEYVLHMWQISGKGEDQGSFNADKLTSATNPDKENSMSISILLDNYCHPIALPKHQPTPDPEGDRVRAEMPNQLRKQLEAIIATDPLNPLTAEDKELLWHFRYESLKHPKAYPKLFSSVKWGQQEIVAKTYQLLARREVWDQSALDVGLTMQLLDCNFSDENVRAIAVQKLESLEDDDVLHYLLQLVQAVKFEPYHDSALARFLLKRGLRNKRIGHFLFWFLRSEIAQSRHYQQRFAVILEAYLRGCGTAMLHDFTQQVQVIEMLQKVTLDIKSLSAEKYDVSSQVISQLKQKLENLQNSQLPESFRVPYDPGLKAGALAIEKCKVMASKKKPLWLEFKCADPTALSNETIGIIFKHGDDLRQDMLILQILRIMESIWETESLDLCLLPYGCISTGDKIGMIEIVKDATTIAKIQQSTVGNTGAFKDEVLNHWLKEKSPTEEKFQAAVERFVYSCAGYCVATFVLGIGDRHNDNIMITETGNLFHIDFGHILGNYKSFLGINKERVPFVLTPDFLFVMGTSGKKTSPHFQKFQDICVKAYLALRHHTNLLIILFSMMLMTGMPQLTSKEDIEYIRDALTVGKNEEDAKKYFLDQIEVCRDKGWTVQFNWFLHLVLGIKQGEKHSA
T3 sequence (Q8NEB9 whole entry): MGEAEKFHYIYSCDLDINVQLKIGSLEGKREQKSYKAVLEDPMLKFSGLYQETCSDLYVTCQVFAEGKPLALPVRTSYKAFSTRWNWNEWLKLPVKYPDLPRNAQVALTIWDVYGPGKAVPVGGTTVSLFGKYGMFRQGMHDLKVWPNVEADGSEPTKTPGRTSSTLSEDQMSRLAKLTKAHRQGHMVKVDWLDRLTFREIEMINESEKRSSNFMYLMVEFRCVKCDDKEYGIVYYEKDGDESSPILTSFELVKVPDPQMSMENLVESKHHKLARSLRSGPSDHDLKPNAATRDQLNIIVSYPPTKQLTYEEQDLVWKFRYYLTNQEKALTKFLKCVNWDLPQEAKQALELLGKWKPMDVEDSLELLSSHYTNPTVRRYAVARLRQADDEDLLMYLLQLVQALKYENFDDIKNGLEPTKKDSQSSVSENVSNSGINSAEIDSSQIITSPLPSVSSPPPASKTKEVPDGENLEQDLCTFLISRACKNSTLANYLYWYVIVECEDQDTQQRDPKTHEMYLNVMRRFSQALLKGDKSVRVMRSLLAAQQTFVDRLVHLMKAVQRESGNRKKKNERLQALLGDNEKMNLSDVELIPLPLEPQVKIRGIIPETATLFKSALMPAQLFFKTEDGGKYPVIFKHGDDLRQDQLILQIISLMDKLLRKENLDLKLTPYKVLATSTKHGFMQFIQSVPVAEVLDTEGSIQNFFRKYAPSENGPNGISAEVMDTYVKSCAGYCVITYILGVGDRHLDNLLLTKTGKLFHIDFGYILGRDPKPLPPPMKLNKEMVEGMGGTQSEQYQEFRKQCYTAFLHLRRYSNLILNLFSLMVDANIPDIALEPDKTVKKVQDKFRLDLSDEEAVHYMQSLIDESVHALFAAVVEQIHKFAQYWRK

O=C(O)c1cccc(Cn2cc(-c3cccc4c(=O)cc(N5CCOCC5)[nH]c34)nn2)c1 [Compound 37, 3‐{[4‐(2‐Morpholino‐4‐oxo‐1,4‐dihydroquinolin‐8‐yl)‐1H‐1,2,3‐triazol‐1‐yl]methyl}benzoic acid]
IC50 ([1]; Table 2, mean of at least three determinations, 95 % confidence intervals): 186 ± 43 nM
inhibition at 1 µM ([1]; determined at 1 μM, at least triplicate, read-out: Inhibitory activity, PI3K isoform γ): > 50%
IC50 [2]: 2800 ± 700 nM
IC50 [3]: 590 ± 200 nM
